Patent publication US20240327372A1, “PREPARATION OF PHENE[…] […] STEREOISOMERS THEREOF AND PRECURSORS THEREOF” (priority 2022, published 2024)
Where a name gives a salt, the structure may show the parent alone.

Assays:
hKCNQ1/hminK = hKCNQ1/hminK (Homo sapiens (Human), UniProt P51787); experiment: hKCNQ1/hminK Potassium Channel Assay, Qube APC; type: cell-based; conditions: KCNQ1/mink
Protocol: (§1) Electrophysiological assays were conducted to profile three compounds ((R)-methylone, (S)-methylone, or racemic methylone) for activities on the ion channel targets specified below using the Qube electrophysiological platform. Where presented, IC50 values were determined by a non-linear, least squares regression analysis. Reference standards were run as an integral part of each assay to ensure the validity of the results obtained.
(§2) Ion Channels tested were Eurofins Panel Part Number: CPROFullQB2DR Voltage-Gated Sodium: HEK-Nav1.5 (Peak), HEK-Nav1.5 (Late, Antagonist) Voltage-Gated Potassium: HEK-Kv4.3/KChIP2, CHO-hERG, CHO-KCNQ1/minK Voltage-Gated Calcium: HEK-Cav1.2 Inward-Rectifying Voltage-Gated Potassium: HEK-Kir2.1.
hKCNQ1/hminK Potassium Channel Assay—Qube APC After whole cell configuration is achieved, the cells are held at −80 mV. KCNQ1/minK currents are evoked by a 1000 ms pulse from −80 mV to 60 mV followed by a ramp from 60 mV to −80 mV over 115 ms with the outward peak currents measured upon depolarization of the cell membrane. This paradigm is delivered once every 15 s to monitor the current amplitude.

hKir2.1 = hKir2.1 (Homo sapiens (Human), UniProt P63252); type: cell-based
Protocol: as §1, §2
hKir2.1 Potassium Channel Assay—Qube APC After whole cell configuration is achieved, the cells are held at −30 mV. Kir2.1 currents are evoked by a single 500 ms pulse to −120 mV before returning to the holding potential of −30 mV. This paradigm is delivered once every 20 s to monitor the current amplitude.

hKv4.3/hKChIP2 = hKv4.3/hKChIP2 (Homo sapiens (Human), UniProt Q9UK17); experiment: hKv4.3/hKChIP2 Potassium Channel Assay, Qube APC; type: cell-based
Protocol: as §1, §2
hKv4.3/hKChIP2 Potassium Channel Assay—Qube APC After whole cell configuration is achieved, the cells are held at −80 mV. Onset and steady state block of hKv4.3 current is measured using a pulse pattern from −80 mV to 40 mV amplitude for a 110 ms duration, and finally a 100 ms ramp (1.2 V/s) to −80 mV. This paradigm is delivered once every 5 s to monitor the current amplitude.

[1] = XRPD of pre- and post-DVS samples (form stability); type: physicochemical; conditions: pre- versus post-DVS
Protocol: (§3) Two lots of methylone HCl samples were submitted to evaluate the stability of the solid forms under various humidity conditions. Dynamic vapor sorption (DVS) analysis was performed to evaluate the kinetic hygroscopicity and assess if variable humidity XRPD would be necessary, as well as to determine the appropriate humidity condition(s) for such XRPD analysis. Both pre- and post-DVS samples were analyzed by conventional XRPD for solid form confirmation or any potential form changes.
The XRPD patterns between the pre- and post-DVS samples were compared for lots 213220 and KRR-R&D-2022-II-58, respectively.
Each sample was prepared in a silicon low background holder using light manual pressure to keep the sample surface flat and level with the reference surface of the sample holder. The single crystal Si low background holder has a circular recess (10 mm diameter and about 0.2 mm depth) that holds the sample. The Rigaku Smart-Lab diffraction system used was configured for Bragg-Brentano reflection geometry using a line source X-ray beam. The Bragg-Brentano geometry was controlled by passive divergence and receiving slits with the sample itself acting as the focusing component for the optics.

[2] = Dynamic vapor sorption (DVS); type: physicochemical
Protocol: as §3
DVS analyses were carried out using a TA Instruments Q5000 Dynamic Vapor Sorption analyzer. The instrument was calibrated with standard weights and a sodium bromide standard for humidity. Approximately 12-13 mg of each powder sample was loaded into a metal-coated quartz pan for analysis. The samples were analyzed from 5 to 95% RH (adsorption cycle) and from 95 to 5% RH (desorption cycle) in 10% RH steps. The movement from one step to the next occurred either after satisfying the equilibrium criterion of 0.01% weight change in 5 minutes or, if the equilibrium criterion was not met, after 90 minutes. The percent weight change values were calculated using Microsoft EXCEL® 2016.

hCav1.2 = hCav1.2 (Homo sapiens (Human), UniProt Q13936); experiment: hCav1.2 (L-type) Calcium Channel Assay, Qube APC; type: cell-based; conditions: Cav1.2, Antagonist mode, test compound
Protocol: (§4) Where presented, IC50 values were determined by a non-linear, least squares regression analysis.
(§5) Recombinant HEK-293 cells stably transfected with human Nav1.5 cDNA, recombinant HEK293 cell line expressing the human Cav1.2 (L-type voltage gated calcium channel, hCav1.2 α1C/β2a/α2δ1, and recombinant CHO-K1 cells stably transfected with human hERG cDNA were used separately in each of these assays.
hCav1.2 (L-type) Calcium Channel Assay—Qube APC After whole cell configuration is achieved, the cells are held at −90 mV. Cav1.2 currents are evoked by a 50 ms pulse to −100 mV followed by a 200 ms pulse to +20 mV before returning to the holding potential of −90 mV. This paradigm is delivered three times every 60 s to monitor the current amplitude.

hNav1.5 = hNav1.5 (Homo sapiens (Human), UniProt Q14524); experiment: hNav1.5 Sodium Channel Assay (peak), Qube APC; type: cell-based; conditions: Nav1.5, Antagonist mode, test compound
Protocol: as §4, §5
hNav1.5 Sodium Channel Assay—Qube APC Onset and steady state block of peak Nav1.5 current is measured using a pulse pattern, repeated every 5 sec, consisting of a hyperpolarizing pulse to −120 mV for a 200 ms duration, depolarization to −15 mV amplitude for a 40 ms duration, followed by step to 40 mV for 200 ms and finally a 100 ms ramp (1.2 V/s) to a holding potential of −80 mV. Peak current is measured during the step to −15 mV.

hNav1.5 Late Current = hNav1.5 Late Current (Homo sapiens (Human), UniProt Q14524); experiment: hNav1.5 Late Current Sodium Channel Assay, Qube APC; type: cell-based; conditions: Nav1.5 Late Current, Antagonist mode, test compound
Protocol: as §1, §2
hNav1.5 Late Current Sodium Channel Assay—Qube APC Onset and steady state block of Late Nav1.5 current is measured using a pulse pattern, repeated every 5 sec, consisting of a hyperpolarizing pulse to −120 mV for a 200 ms duration, depolarization to −15 mV amplitude for a 40 ms duration, followed by step to 40 mV for 200 ms and finally a 100 ms ramp (1.2 V/s) to a holding potential of −80 mV. Late current is measured as charge current elicited during the ramp with 50 nM ATXII.

Chain of hKv4.3/hKChIP2 (Q9UK17 whole entry, looked up): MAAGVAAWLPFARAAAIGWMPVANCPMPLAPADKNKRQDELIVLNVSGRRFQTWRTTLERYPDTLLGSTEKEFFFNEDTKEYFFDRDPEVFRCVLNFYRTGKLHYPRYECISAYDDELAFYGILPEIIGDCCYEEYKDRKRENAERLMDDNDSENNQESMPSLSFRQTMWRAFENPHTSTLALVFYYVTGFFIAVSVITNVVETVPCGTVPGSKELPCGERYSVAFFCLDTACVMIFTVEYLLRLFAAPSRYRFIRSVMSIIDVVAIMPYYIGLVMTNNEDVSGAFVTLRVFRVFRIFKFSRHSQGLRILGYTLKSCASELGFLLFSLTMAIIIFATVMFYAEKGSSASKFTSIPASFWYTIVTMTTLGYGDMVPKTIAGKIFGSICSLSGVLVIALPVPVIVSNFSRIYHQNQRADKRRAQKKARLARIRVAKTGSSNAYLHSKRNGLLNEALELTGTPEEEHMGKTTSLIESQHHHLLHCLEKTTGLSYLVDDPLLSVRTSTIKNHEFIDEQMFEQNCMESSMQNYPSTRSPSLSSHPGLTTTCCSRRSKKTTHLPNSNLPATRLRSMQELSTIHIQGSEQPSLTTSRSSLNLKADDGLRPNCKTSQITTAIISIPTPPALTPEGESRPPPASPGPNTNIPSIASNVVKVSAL
Chain of hKv4.3/hKChIP2 (Q9NS61 whole entry partner, looked up): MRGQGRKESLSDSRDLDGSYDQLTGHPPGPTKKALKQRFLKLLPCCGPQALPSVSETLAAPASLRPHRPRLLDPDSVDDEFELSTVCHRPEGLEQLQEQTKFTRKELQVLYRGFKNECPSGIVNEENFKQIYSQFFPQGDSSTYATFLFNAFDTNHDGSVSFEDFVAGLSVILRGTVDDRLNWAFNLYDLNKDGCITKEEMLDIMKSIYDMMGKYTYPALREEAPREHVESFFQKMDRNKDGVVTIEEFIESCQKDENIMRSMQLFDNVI
Chain of hKir2.1 (P63252 whole entry): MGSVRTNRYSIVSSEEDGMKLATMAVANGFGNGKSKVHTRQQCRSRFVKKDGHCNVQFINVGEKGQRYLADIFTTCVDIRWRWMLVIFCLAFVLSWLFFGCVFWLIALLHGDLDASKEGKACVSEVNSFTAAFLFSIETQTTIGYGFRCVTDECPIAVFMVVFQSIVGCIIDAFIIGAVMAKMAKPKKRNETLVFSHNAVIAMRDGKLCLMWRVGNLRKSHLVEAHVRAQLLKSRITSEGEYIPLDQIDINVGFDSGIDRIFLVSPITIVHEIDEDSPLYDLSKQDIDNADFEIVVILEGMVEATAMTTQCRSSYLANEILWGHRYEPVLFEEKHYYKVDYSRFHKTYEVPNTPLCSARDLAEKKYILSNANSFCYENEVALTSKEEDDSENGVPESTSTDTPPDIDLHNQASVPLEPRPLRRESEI

Compound `CCS(=O)(=O)N(C)[C@H]1c2cc(C#N)ccc2OC(C)(C)[C@@H]1O` (racemic) [Chromanol 293B] has an IC50 (hKCNQ1/hminK; reference compound, read-out: Estimated IC50) of 45.3 µM.
For `[Ba+2].[Cl-].[Cl-]` [Barium Chloride], the IC50 (hKir2.1; Kir2.1, reference compound, read-out: Estimated IC50) was 14.4 µM.
For `O=C(NCC1CCCCN1)c1cc(OCC(F)(F)F)ccc1OCC(F)(F)F` (centres unmarked) [Flecainide], the IC50 (hKv4.3/hKChIP2; Kc4.3/ChIP2, reference compound, read-out: Estimated IC50) was 19.5 µM.
In the case of `CNC(C)C(=O)c1ccc2c(c1)OCO2` (centres unmarked) [Lot 213220, methylone HCl], the “Form changes of post-DVS samples (XRPD)” value [1] is reported as “No form changes” and the Hysteresis upon desorption [2] is reported as “little to no hysteresis”.
In the case of `CNC(C)C(=O)c1ccc2c(c1)OCO2` (centres unmarked) [Methylone HCl, methylone HCl], the “Estimated IC50” value (hKir2.1; Kir2.1, Antagonist mode, test compound) is reported as “N/C (N/C indicates observed mean inhibition was <25%)”, the “Estimated IC50” value (hKCNQ1/hminK; Antagonist mode, test compound) is reported as “N/C (N/C indicates observed mean inhibition was <25%)” and the “Estimated IC50” value (hCav1.2) is reported as “N/C (N/C indicates observed mean inhibition was <25%)”. The “Estimated IC50” value (hKv4.3/hKChIP2; Kc4.3/ChIP2, Antagonist mode, test compound) was “N/C (N/C indicates observed mean inhibition was <25%)”, the “Estimated IC50” value (hNav1.5) was “N/C (N/C indicates observed mean inhibition was <25%)” and the “Estimated IC50” value (hNav1.5 Late Current) was “N/C (N/C indicates observed mean inhibition was <25%)”.
With `CNC(C)C(=O)c1ccc2c(c1)OCO2.Cl` [lot KRR-R&D-2022-II-58, methylone HCl] the “Form changes of post-DVS samples (XRPD)” value [1] was “No form changes”, the “Adsorbed water retained upon desorption” value [2] was “approximately 0.06%” and the Hysteresis upon desorption [2] was “slight hysteresis”.
